Results taken from patent publication US4539410A, “N-Substituted-2-(1-imidazolyl)indoles” (priority 1983, dated 1985).

Experiments:
[1] = test system: prostacyclin (PGI2) plasma level; assay: in vivo plasma prostacyclin (6-keto-PGF1 α) in rats after ionophore A23187; conditions: oral, at 0.20 mg/kg or a higher dose
Protocol: (§1) The inhibition of the synthesis and the reduction of plasma levels of thromboxane is determined in vivo on administration to rats in the following manner (as adapted from the procedures described by Tai et al. in Anal. Biochem. 87:343, 1978 and by Salmon in Prostaglandins 15:383, 1978):
(§2) Rats are dosed with vehicle or test drug and injected intravenously with inophore A23187 (0.5 mg/kg) two hours later. Blood is collected for analysis 2 minutes after the ionophore injection. A single aliquot of each plasma sample is assayed for thromboxane B2 and another aliquot for 6-keto-PGF1 α, the stable metabolites of thromboxane A2 and prostacyclin (PGI2) respectively, by radioimmunoassay.

[2] = test system: thromboxane B2 plasma level; assay: in vivo reduction of plasma thromboxane B2 in rats after ionophore A23187; conditions: oral dose as low as 0.20 mg/kg
Protocol: as §1, §2

[3] = biological target: T1, thromboxane synthetase from lysed human platelets (Homo sapiens, UniProt P24557); assay: in vitro inhibition of thromboxane synthetase (14C-arachidonic acid, TxB2/PGF2 α+β ratio); assay type: biochemical; conditions: concentration at which ratio TxB2/PGF2 α+β is reduced to 50% of control; 30 minutes incubation
T1 construct: crude microsomal preparation of thromboxane synthetase from lysed human platelets; from tissue; host or cells: human platelets (lysed), crude microsomal preparation
T1 sequence (P24557 1-533): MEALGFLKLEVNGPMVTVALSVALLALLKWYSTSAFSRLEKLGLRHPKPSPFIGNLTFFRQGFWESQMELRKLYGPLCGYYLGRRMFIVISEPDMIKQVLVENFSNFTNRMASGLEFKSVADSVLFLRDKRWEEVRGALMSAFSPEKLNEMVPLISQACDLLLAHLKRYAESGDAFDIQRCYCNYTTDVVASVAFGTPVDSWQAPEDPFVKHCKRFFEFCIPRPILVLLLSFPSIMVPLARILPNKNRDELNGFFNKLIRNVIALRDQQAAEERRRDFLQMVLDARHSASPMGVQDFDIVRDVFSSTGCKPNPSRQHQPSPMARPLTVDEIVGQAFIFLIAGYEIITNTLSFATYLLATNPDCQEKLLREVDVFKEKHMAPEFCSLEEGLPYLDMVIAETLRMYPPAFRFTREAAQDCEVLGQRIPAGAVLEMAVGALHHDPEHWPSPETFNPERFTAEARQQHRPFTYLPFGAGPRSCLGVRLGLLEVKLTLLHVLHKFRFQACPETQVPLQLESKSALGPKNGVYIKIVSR
Protocol: Res. Comm. 74, 1432 (1977); the testing procedure is as follows:
^14 C-Arachidonic acid is incubated with an enzyme mixture preparation consisting of solubilized and partially purified prostaglandin cyclo-oxygenase from sheep seminal vesicles and a crude microsomal preparation of thromboxane synthetase from lysed human platelets. The test compound (dissolved in buffer, or if necessary, in a small amount of ethanol) is added to the incubation medium. At the end of the incubation period (30 minutes), Prostaglandin E2 (PGE2) is reduced to a mixture of Prostaglandin F2 α and F2 β (PGF2 α+β) by addition of sodium borohydride. The radioactive products and excess substrate are extracted into ethyl acetate; the extract is evaporated to dryness; the residue is dissolved in acetone, spotted on thin-layer plates and chromatographed in the solvent system toluene:acetone:glacial acetic acid (100 volumes:100 volumes:3 volumes). The radioactive zones are located; those corresponding to Thromboxane B2 (T×B2) and PGF2 α+β are transferred to liquid scintillation vials and counted. The ratio of counts for T×B2 /PGF2 α+β is calculated for each concentration of test compound and IC50 values are determined graphically as the concentration of test compound at which the ratio of T×B2 /PGF2 α+β is reduced to 50% of the control value.

IC50 [3]: 2.3 nM
Structure (SMILES): Cc1c(-n2ccnc2)n(CCCCCC(=O)O)c2ccccc12.Cl [Example 3, 1-(5-carboxypentyl)-2-(1-imidazolyl)-3-methylindole hydrochloride]
plasma level of prostacyclin [1]: increase in the plasma level of prostacyclin occurs
decrease of the plasma concentration of thromboxane B2 [2]: over 50%
